Consider one compound from patent US11400160B2, “Multifunctional conjugates” (E.P.O.S IASIS Research and Development Limited, priority 2017, dated 2022).

This experiment has as its system metastatic breast cancer cell lines (MCF-7, MDA-MB231, MDA-MB231TXSA). Kind of experiment: Cell viability / antiproliferative activity, breast cancer lines. Type of experiment: cell-based. How it is done:
Immortalised osteolytic metastatic breast cancer cell lines, a) hormone-dependent MCF-7 and b) hormone refractory MDA-MB231, together with the daughter line MDA-MB231TXSA were incubated with 5 gradual concentrations of compounds of the invention as described below. Cell viability was assessed with the crystal violet colorimetric assay and IC50s were evaluated.
Medium was removed from cell cultures and cells were fixed with 4% v/v formaldehyde for 5 mins at room temperature. Formalin was then removed and CV added for 10 mins at room temperature followed by several washes with dsH2O. Samples were allowed to dry overnight. The following day, 10% acetic acid was added for 15 mins and optical density at 620 nm was measured. Optical densities versus compound concentrations were plotted in graphs and IC50s estimated by linear regression analysis using the WorkOut (VictorX4) software.
MCF-7, MDA-MB231 and MDA-MB231TXSA cells were seeded in 96-well-plates and allowed to attach overnight. The following day media were replaced with fresh media containing the following compounds: Both free tetraethyl methylbisphosphonate (bpp(OEt)) and bpp(OEt) in 1:1 combination with the free chromanol and the biphosphonate conjugates were tested at 5 gradual concentrations of: 0.02, 0.04, 0.06, 0.08 and 0.1 mM.
Cells were cultured in the presence of the compounds for 72 hrs and viability was assessed on day 3 by crystal violet assay. The cell lines were selected for their high bone metastatic potential. The fluorescently transfected line MB231TXSA, derived from line MB231 is also used in animal studies (WP7).

On to `CCOP(=O)(OCC)C(CCC(=O)Oc1cc2c(c(C)c1C)OC(C)(CCCC(C)CCCC(C)CCCC(C)C)CC2)P(=O)(OCC)OCC` (stereo not drawn) [γ-toc-bpp(OEt), γ-tocopheryl bisphosphonic ester], for which, under “esterified compounds and 1:1 mixtures”, the “antiproliferative activity compared with bpp(OEt)” value is recorded as “increased”. The “antiproliferative activity compared with γ-tocopherol” value (upon esterification of γ-tocopherol) is reported as “increased”. Further, for the setting “viability assays and IC50s, 72 hrs”, the “effect on cell viability” value is “reduced cell viability”.
